Results on seven molecules are retold here after ChEMBL document CHEMBL1201862, “PubChem BioAssay data set” (2004).

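48-hour exposure; five concentrations; linearly interpolated endpoints. At the GI50, growth is halved.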 Activity calls are given as the source filed them. Rule as the data show it: active = GI50 up to about 1.1 µM and inactive = higher.

Among the test systems are CAKI-1; CCRF-CEM; COLO 205; HOP-92; Hs-578T; K562; LOX IMVI; MCF7; MDA-N; NCI-H23; OVCAR-4; RXF 393; SF-268; SK-MEL-5; SN12C; SNB-19; SR; SW-620; U-251; UACC-257.
Holding throughout (experiment): NCI anticancer screen, dose series, 48 h

`C=C1C(=O)O[C@@H]2[C@H]1C[C@H](I)[C@@]1(C)CC[C@H](O1)[C@](C)(I)CCCC(C)[C@@H]2O` (stereo not given in full): the GI50 in the assay with CAKI-1 was 1.96 µM (inactive); with CCRF-CEM, 0.384 µM (active); with COLO 205 it was 2.21 µM (inactive); in the assay on HOP-92 it was 1.54 µM (inactive); in the assay with Hs-578T it was 14.6 µM (inactive); in the assay on K562, 2.37 µM (inactive). Further, the GI50 in the assay with LOX IMVI is 1.32 µM (inactive); with MCF7, 2.29 µM (inactive); with MDA-N, 2.7 µM (inactive); in the assay on NCI-H23, 7.43 µM (inactive); in the assay on OVCAR-4 it was 6.32 µM (inactive); with RXF 393, 1.69 µM (inactive). For the same molecule, the GI50 is 12.6 µM (inactive) in the assay on SF-268; 3.29 µM (inactive) in the assay with SK-MEL-5; 4.98 µM (inactive) in the assay with SN12C; 16.4 µM (inactive) with SNB-19; 2 µM (inactive) in the assay on SR; 1.81 µM (inactive) in the assay with SW-620. Besides, the GI50 in the assay with U-251 is 6.07 µM (inactive); in the assay with UACC-257, 6.1 µM (inactive).

Regarding `CCCCCCCCCCCCC(O)[C@H]1CC[C@H](C(O)CCCCCC(=O)CCCCC2CC(C(C)=O)C(=O)O2)O1` (stereo not given in full), the GI50 in the assay on CAKI-1 is 17.1 µM (inactive); in the assay on CCRF-CEM it was 3.17 µM (inactive); with COLO 205, 6.3 µM (inactive); in the assay with HOP-92 it was 10.4 µM (inactive); in the assay on Hs-578T it was 15.4 µM (inactive); in the assay on K562 it was 1.33 µM (inactive). In addition, the GI50 in the assay with LOX IMVI was 2.08 µM (inactive); with MCF7, 3.47 µM (inactive); with MDA-N, 3.68 µM (inactive); with NCI-H23, 2.22 µM (inactive); with OVCAR-4, 4.09 µM (inactive); with RXF 393, 7.6 µM (inactive). Besides, the GI50 was 12.3 µM (inactive) in the assay with SF-268; 0.802 µM (active) in the assay on SK-MEL-5; 7.24 µM (inactive) with SN12C; 9.4 µM (inactive) with SNB-19; 0.0264 µM (active) in the assay on SR; 11.4 µM (inactive) with SW-620. The GI50 in the assay with U-251 is 8.87 µM (inactive); in the assay on UACC-257 it was 1.16 µM (inactive).

On to `[N-]=[N+]=Nc1nc2ccccc2c(N=[N+]=[N-])c1Cl`, for which the GI50 with CAKI-1 is > 100 µM (inactive); in the assay on CCRF-CEM, > 100 µM (inactive); in the assay with COLO 205 it was > 100 µM (inactive); with HOP-92, 30.3 µM (inactive); in the assay with Hs-578T it was 31.6 µM (inactive); in the assay with K562 it was > 100 µM (inactive). In addition, the GI50 with LOX IMVI is > 100 µM (inactive); in the assay on MCF7 it was > 100 µM (inactive); in the assay on MDA-N it was > 100 µM (inactive); in the assay with NCI-H23, > 100 µM (inactive); with OVCAR-4, 68.9 µM (inactive); in the assay with RXF 393 it was 25.6 µM (inactive). Besides, the GI50 in the assay on SF-268, with SK-MEL-5, with SN12C, with SNB-19, with SR and with SW-620 was > 100 µM (inactive) each time. For the same molecule, the GI50 with U-251 and in the assay on UACC-257 was > 100 µM (inactive) each time.

As to `Fc1ccccc1C1SCC2=Nc3ccccc3CN21` (stereo not given), the GI50 in the assay on CAKI-1, with CCRF-CEM, in the assay with COLO 205, in the assay on HOP-92, with Hs-578T and with K562 was > 100 µM (inactive) each time. The GI50 in the assay with LOX IMVI is > 100 µM (inactive); in the assay on MCF7 it was 80.2 µM (inactive); with MDA-N, > 100 µM (inactive); in the assay with NCI-H23 it was > 100 µM (inactive); in the assay with OVCAR-4, > 100 µM (inactive); with RXF 393, > 100 µM (inactive). Further, the GI50 was 54.1 µM (inactive) in the assay on SF-268; 89.7 µM (inactive) in the assay on SK-MEL-5; > 100 µM (inactive) with SN12C; > 100 µM (inactive) in the assay with SNB-19; 79.8 µM (inactive) in the assay on SR; > 100 µM (inactive) in the assay with SW-620. The GI50 with U-251 and in the assay on UACC-257 was > 100 µM (inactive) throughout.

Regarding `CCOC(=O)N(C)CCC1CC=CC(=O)C1c1cccc(OC)c1OC` (stereo not given), the GI50 is 20.9 µM (inactive) in the assay with CAKI-1; 10.6 µM (inactive) in the assay with CCRF-CEM; 4 µM (inactive) in the assay on COLO 205; 65.3 µM (inactive) in the assay on HOP-92; 71.4 µM (inactive) with Hs-578T; 23.2 µM (inactive) in the assay on K562. The GI50 is 38.7 µM (inactive) in the assay on LOX IMVI; 16.9 µM (inactive) in the assay with MCF7; 13.1 µM (inactive) in the assay with MDA-N; 14 µM (inactive) with NCI-H23; 28 µM (inactive) in the assay with OVCAR-4; 10.5 µM (inactive) in the assay with RXF 393. In addition, the GI50 was 19.9 µM (inactive) in the assay on SF-268; 9.53 µM (inactive) with SK-MEL-5; 17.3 µM (inactive) in the assay with SN12C; 23.3 µM (inactive) in the assay on SNB-19; 14.3 µM (inactive) in the assay with SR; 20.9 µM (inactive) in the assay on SW-620. Also, the figures for the GI50 in the assay on U-251 and with UACC-257 were 16.7 µM (inactive) and 13.4 µM (inactive), respectively.

`CCOC(=O)Nc1cc2c(c(N)n1)N=C(c1ccccc1)[C@H](C)N2` [MIVOBULIN ISETHIONATE]: the GI50 was < 0.0001 µM (active) in the assay on CAKI-1; < 0.0001 µM (active) in the assay on CCRF-CEM; < 0.0001 µM (active) with COLO 205; 0.01 µM (active) in the assay on HOP-92; < 0.0001 µM (active) in the assay on Hs-578T; < 0.0001 µM (active) with K562. The GI50 with LOX IMVI was < 0.0001 µM (active); in the assay with MCF7, < 0.0001 µM (active); in the assay with MDA-N, < 0.0001 µM (active); in the assay with NCI-H23 it was 0.00161 µM (active); in the assay on OVCAR-4, 0.00363 µM (active); in the assay with RXF 393, < 0.0001 µM (active). In addition, the GI50 was < 0.0001 µM (active) in the assay on SF-268; < 0.0001 µM (active) in the assay with SK-MEL-5; 0.0475 µM (active) in the assay with SN12C; < 0.0001 µM (active) in the assay on SNB-19; < 0.0001 µM (active) in the assay with SR; < 0.0001 µM (active) in the assay with SW-620. Besides, the GI50 was 0.0369 µM (active) with U-251 and 0.00215 µM (active) with UACC-257.

As for `C/C(=N/NC(=S)Nc1ccccc1Cl)c1ccccn1`, the GI50 with CAKI-1 was 0.0675 µM (active); in the assay on CCRF-CEM it was < 0.01 µM (active); in the assay with COLO 205, < 0.0162 µM (active); with HOP-92 it was 1.03 µM (active); with Hs-578T, 8.53 µM (inactive); with K562, < 0.01 µM (active). The GI50 was 0.01 µM (active) with LOX IMVI; < 0.0119 µM (active) with MCF7; 0.452 µM (active) in the assay with MDA-N; < 0.0161 µM (active) with NCI-H23; 0.249 µM (active) in the assay with OVCAR-4; 1.41 µM (inactive) in the assay on RXF 393. Besides, the GI50 with SF-268 was 0.0843 µM (active); in the assay on SK-MEL-5, 0.0753 µM (active); in the assay on SN12C it was 0.129 µM (active); with SNB-19, 1.79 µM (inactive); with SR it was < 0.0139 µM (active); in the assay on SW-620, < 0.0168 µM (active). The GI50 in the assay on U-251 was 0.0418 µM (active); in the assay on UACC-257, < 0.0151 µM (active).
